Where two headings read alike, the source gives them in different places.
Experiments:
Tomato = test: Weed and crop Petri dish bioassay, radicle length; type: in vivo, Lycopersicon esculentum var. esculentum P. Mill.
Experimental: (§1) m-Tyrosine activity was bioassayed using selected weed and crop species. Growth inhibition as measured by radicle elongation was evaluated in dandelion (Taraxacum officinale Weber in […].), large crabgrass (Digitaria sanguinalis (L.) Scop.), velvetleaf (Abutilon theophrasti Medicus), black medic (Medicago lupulina L.), curly cress (Lepidium sativum L.), bamyardgrass (Echinochloa crus-galli.(L.) Beauv.), lettuce (Lactuca sativa L.), purslane (Portulaca oleracea L.), annual bluegrass (Poa annua L.), birdsfoot trefoil (Lotus corniculatus L.), broadleaf plantain (Plantago major L.), mouseear chickweed (Cerastium vulgatum L.), common chickweed (Stellaria media (L.) Vill.), white clover (Trifolium repens L.), wheat (Triticum aestivum L.), tomato (Lycopersicon esculentum var. esculentum P. Mill.), tobacco (Nicotiana tobacum L.), and sorghum sudangrass hybrid (Sorghum bicolor x Sudanese). Weeds were purchased from HerbiSeeds, England, tomato seeds were purchased from Agway (Ithaca N.Y.), and wheat, sudex and tobacco where donated by Pioneer Seeds (Johnson, Iowa). Seeds were sterilized by a water: ethanol mixture (1:1) for one minute and rinsed three times thoroughly in distilled water. The simple phytotoxicity bioassay utilized consisted of the evaluation of radicle length of ten sterilized seeds of each weed/crop deposited on a filter paper containing the appropriate m-tyrosine test solution in 4.5 cm Petri dishes. […] A 1000 μL aliquot of the appropriate test solution was added to individual Petri dishes lined with Whatman No. 1 filter paper. Control dishes received 1000 μL of water. After seeds were placed on moistened filter paper, Petri dishes were transferred to a controlled environment with a light regime of 45,33 photon m^-2 s^-1 and maintained at an average temperature of 25° C. for 7 days. At the end of the incubation period, radicle length was measured. Treatments were replicated three times, and the experiment for each plant species tested was repeated three times.

Black Medic = test: Weed and crop Petri dish bioassay, radicle length; type: in vivo, Medicago lupulina L.
Experimental: (§2) m-Tyrosine activity was bioassayed using selected weed and crop species. Growth inhibition as measured by radicle elongation was evaluated in dandelion (Taraxacum officinale Weber in […].), large crabgrass (Digitaria sanguinalis (L.) Scop.), velvetleaf (Abutilon theophrasti Medicus), black medic (Medicago lupulina L.), curly cress (Lepidium sativum L.), bamyardgrass (Echinochloa crus-galli.(L.) Beauv.), lettuce (Lactuca sativa L.), purslane (Portulaca oleracea L.), annual bluegrass (Poa annua L.), birdsfoot trefoil (Lotus corniculatus L.), broadleaf plantain (Plantago major L.), mouseear chickweed (Cerastium vulgatum L.), common chickweed (Stellaria media (L.) Vill.), white clover (Trifolium repens L.), wheat (Triticum aestivum L.), tomato (Lycopersicon esculentum var. esculentum P. Mill.), tobacco (Nicotiana tobacum L.), and sorghum sudangrass hybrid (Sorghum bicolor x Sudanese). Weeds were purchased from HerbiSeeds, England, tomato seeds were purchased from Agway (Ithaca N.Y.), and wheat, sudex and tobacco where donated by Pioneer Seeds (Johnson, Iowa). Seeds were sterilized by a water: ethanol mixture (1:1) for one minute and rinsed three times thoroughly in distilled water. […] At the end of the incubation period, radicle length was measured. […]

[1] = system: lettuce seedlings (Lactuca sativa L.); test: Petri-dish bioassay, radicle elongation in lettuce seedlings; type: in vivo; conditions: for IC50: Lactuca sativa
Escherichia coli = test: Antibacterial disc assay; type: cell-based
Experimental: (§3) m-Tyrosine was evaluated for its effect on several bacteria (Bacillus cereus, Bacillus subtilis, and Escherichia coli) grown on nutrient agar (Difco) plates (9 cm) and a fungal culture (Metarhizium anisopliae ([…].)) grown on potato dextrose agar (Difco) plates. These plates were spread with either 0.5 mL aliquots of a liquid bacterial culture grown for 18 h in nutrient broth or with 0.5 mL of a fungal spore suspension (1×10^6 spores/mL), and were allowed to dry for approximately 30 minutes. […] A disc moistened with 10 μl of water served as negative control, and positive controls consisted of discs spiked with ampicillin and tetracycline (5 μg). The plates were placed in an incubator at 25° C., and visually checked for zones of inhibition for up to four days. All experiments were performed in triplicate.

Bacillus subtilis = test: Antibacterial disc assay; type: cell-based
Experimental: as §3

Bacillus cereus = test: Antibacterial disc assay; type: cell-based
Experimental: as §3

[2] = system: onion (Allium cepa L.) root cells; test: Mitotic index of onion root tip cells; type: cell-based
Experimental: Root tips were stained for light microscopy examination using the Feulgen reaction. Root tips of three mm length were treated with a mixture of absolute ethanol:glacial acetic acid for two hours. The ethanol-glacial acetic acid mixture was removed and the tips were rinsed with distilled water. […] For each m-tyrosine concentration, five individual root tips were removed and macerated in a drop of 45% acetic acid on a slide, and the mitotic stages of the onion root tip cells were observed under a light microscope. […] One thousand cells were recorded per replication, resulting in observation of a total of 3000 cells per treatment. The experiment was repeated three times.

crabgrass seedlings = test: Soil bioassay, crabgrass root growth; type: in vivo, Digitaria sanguinalis L.; conditions: Digitaria sanguinalis, soil media, read-out: concentration reducing root elongation by 50%
Description: Large crabgrass was also included in the first two experiments because it is a common weed in turf settings. Prior experiments have shown that m-tyrosine is a potent inhibitor of root growth of large crabgrass and lettuce (Bertin et al., “Laboratory Assessment of the Allelopathic Effects of Fine Leaf Fescues,” J. Chem. Ecol. 29:1919-1937 (2003), which is hereby incorporated by reference in its entirety). Soil and MetroMix, as described as previously, were placed in 9-cm petri dishes, and 15 lettuce or crabgrass seeds were sown on the soil surface. Each experiment was replicated three times and was repeated over time.

[3] = Dissolution in aqueous solution; type: physicochemical
[4] = system: Metarhizium anisopliae (Metsch.); test: Fungal disc assay; type: cell-based; conditions: even at concentrations as high as 25 mM
Experimental: as §3

Large Crabgrass = test: Weed and crop Petri dish bioassay, radicle length; type: in vivo, Digitaria sanguinalis (L.) Scop.
Experimental: as §1

Mouseear chickweed = test: Weed and crop Petri dish bioassay, radicle length; type: in vivo, Cerastium vulgatum L.
Experimental: as §1

Cress = test: Weed and crop Petri dish bioassay, radicle length; type: in vivo, Lepidium sativum L.
Experimental: as §2

## N[C@@H](Cc1cccc(O)c1)C(=O)O [m-tyrosine, 3-hydroxyphenylalanine]
Tomato
  I10: 35 µM
  I100: 160 µM
Tomato; Solanum lycopersicum, read-out: I50
  IC50: 75 µM
Black Medic
  I10: 40 µM
Black Medic; Medicago lupulina, read-out: I50
  IC50: 84 µM
[1]; 20 μM loaded on filter paper
  reduction of root elongation of lettuce seedlings: 64%
[1]; lettuce seedlings at 72 h, read-out: concentration for 50% reduction of root growth
  IC50: 17 µM
[1]; soil-less assay, read-out: I50, 50% inhibition of root growth of lettuce
  IC50: ~8 µM
[1]; solutions added to pre-germinated seeds
  root elongation of pre-germinated lettuce seeds: strongly inhibited
Escherichia coli
  growth inhibition: not inhibited
Bacillus subtilis
  growth inhibition: not inhibited
Bacillus cereus
  growth inhibition: not inhibited
[2]; 20 μM
  mitotic indices in all phases of mitosis: significantly reduced
[2]; m-tyrosine 10 (μM)
  Anaphase, total cells observed: 1.6%
  Metaphase, total cells observed: 1.4%
  Prophase, total cells observed: 2.2%
  Telophase, total cells observed: 2%
[2]; m-tyrosine 20 (μM)
  Anaphase, total cells observed: 1.1%
  Metaphase, total cells observed: 1%
  Prophase, total cells observed: 2%
  Telophase, total cells observed: 1%
[2]; m-tyrosine 40 (μM)
  Anaphase, total cells observed: 0.6%
  Metaphase, total cells observed: 0.4%
  Prophase, total cells observed: 1%
  Telophase, total cells observed: 0.2%
[2]; m-tyrosine 80 (μM)
  Anaphase, total cells observed: 0.5%
  Metaphase, total cells observed: 0%
  Prophase, total cells observed: 0.5%
  Telophase, total cells observed: 0.2%
[2]; m-tyrosine 160 (μM)
  Anaphase, total cells observed: 0%
  Metaphase, total cells observed: 0%
  Prophase, total cells observed: 0.2%
  Telophase, total cells observed: 0.3%
Crabgrass seedlings
  IC50: 4000 µM
[3]
  dissolution in an aqueous solution: easily dissolved
[4]
  sensitivity of fungal cultures: not sensitive
Large Crabgrass
  I10: 20 µM
  I100: 320 µM
Large Crabgrass; Digitaria sanguinalis, read-out: I50
  IC50: 38 µM
Mouseear chickweed
  I10: 6 µM
  I100: 47 µM
Mouseear chickweed; Cerastium, read-out: I50
  IC50: 9 µM
Cress
  I10: 15 µM
Cress; Lepidium sativum, read-out: I50
  IC50: 23 µM

Reference: patent US8461085B2, “Bioherbicide from Festuca spp” (Cornell Research Foundation, Inc., priority 2005, dated 2013)
